Laboratory results reported in ChEMBL document CHEMBL1201862, “PubChem BioAssay data set” (2004).
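Test compounds were applied to cells in 96-well plates for 48 hours at 5 doses. GI50: concentration for 50% inhibition of growth.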 Active and inactive are the calls of the source. No stated cut-off is given here; in the data, active = GI50 up to about 1.1 µM and inactive = higher. Residues, ends and D or L forms follow the SMILES beside them.

Experiments:
Experiment in all cases: DTP human tumour cell line panel, 48 h
BT-549 = system: BT-549
Hs-578T = system: Hs-578T
SNB-78 = system: SNB-78
DLD-1 = system: DLD-1
M19-MEL = system: M19-MEL
LXFL 529 = system: LXFL 529

With `COc1cc2c3cc1Oc1c(OC)c(OC)cc4c1C(Cc1ccc(O)c(c1)Oc1ccc(cc1)CC3N(C)CC2)CN(C)C4` (stereo unspecified) as the compound, how does the GI50 (BT-549) read?
Its GI50 is 14.8 µM (inactive).

And the GI50 (Hs-578T)?
The GI50 was 15.5 µM (inactive).

Which GI50 (BT-549) does the source give for `COC(=O)c1cc(C)ccc1C1CN=NC12Cc1c(C)cc(C)cc1C2=O` (stereo unspecified) here?
Its GI50 is 24.7 µM (inactive).

And the GI50 (Hs-578T)?
The GI50 was 18.7 µM (inactive).

Which results are given for `O=C(Cn1c(C(=O)/C=C/c2ccco2)nc2ccccc21)c1ccc(Cl)cc1`?
GI50 (BT-549): 14.9 µM (inactive); GI50 (Hs-578T): 1.29 µM (inactive)

With `Cc1noc(NS(=O)(=O)c2ccc(NC(=O)c3ccc4nc5ccccc5c(Nc5ccc(S(=O)(=O)Nc6onc(C)c6C)cc5)c4c3)cc2)c1C` as the compound, how does the GI50 (BT-549) read?
The GI50 was 24.8 µM (inactive).

And the GI50 (Hs-578T)?
The GI50 was > 100 µM (inactive).

Which GI50 (BT-549) does the source give for `CCOC1OC(COC(=O)C(C)(C)C)C(O)CC1n1cc(C)c(=O)[nH]c1=O` (stereo unspecified) here?
The GI50 was > 100 µM (inactive).

And the GI50 (Hs-578T)?
Its GI50 is > 100 µM (inactive).

What does the source list for `O=C1C2=C(C(=O)c3c(O)ccc(O)c31)[C@@H](O)[C@@H](O)[C@@H](O)C2`?
GI50 (BT-549): 1.43 µM (inactive); GI50 (Hs-578T): 3.72 µM (inactive)

For `CCOC(=O)c1ccc(NC(=O)O/N=C(/Cl)CCl)cc1`, which GI50 (Hs-578T) is on record?
The GI50 was > 100 µM (inactive).

For `CS[C@]12[C@@H]3C(=O)N(C)C(=O)[C@@H]3[C@](C)(C(=O)N1C)C(=O)N2c1ccccc1`, which GI50 (BT-549) is on record?
Its GI50 is > 100 µM (inactive).

What about the GI50 (Hs-578T) of the same compound?
Its GI50 is > 100 µM (inactive).

For `CCOC(CCNCC(OCC)OCC)OCC`, which GI50 (BT-549) is on record?
The GI50 was > 10 µM (inactive).

What about the GI50 (Hs-578T) of the same compound?
Its GI50 is > 10 µM (inactive).

Which results are given for `Cc1cc2c(cc1C)C(=O)c1ncccc1C2=O`?
GI50 (BT-549): 40.9 µM (inactive); GI50 (Hs-578T): > 100 µM (inactive)

`O=C1C[C@@]23CCC4(CC2=CCC[C@H]3O1)OCCO4` was tested. Which GI50 (Hs-578T) did it give?
The GI50 was > 100 µM (inactive).

`N#C/C(=C/NC(=S)Nc1ccc(S(N)(=O)=O)cc1)C(N)=O` was tested. Which GI50 (BT-549) did it give?
The GI50 was > 100 µM (inactive).

What about the GI50 (Hs-578T) of the same compound?
The GI50 was > 100 µM (inactive).

What does the source list for `CN(C)CCCNc1nnc(NCCCN(C)C)c2c(=O)c3sccc3[nH]c12`?
GI50 (BT-549): 32.1 µM (inactive); GI50 (Hs-578T): 23.2 µM (inactive)

With `Cc1nc2ccc(S(=O)(=O)Nc3ccccc3Cl)cc2c(=O)n1NC(=O)CNc1ccccc1Cl` as the compound, how does the GI50 (BT-549) read?
Its GI50 is > 100 µM (inactive).

And the GI50 (Hs-578T)?
Its GI50 is > 100 µM (inactive).

Which GI50 (BT-549) does the source give for `CCOC(=O)C#Cc1ccccc1` here?
The GI50 was 11.6 µM (inactive).

What about the GI50 (Hs-578T) of the same compound?
Its GI50 is 19.3 µM (inactive).

With `Cc1ccc(S(=O)(=O)[N-]C2C(=O)c3ccccc3C(=O)C2[n+]2cccc(C(N)=O)c2)cc1` (stereo unspecified) as the compound, how does the GI50 (BT-549) read?
Its GI50 is > 100 µM (inactive).

What about the GI50 (Hs-578T) of the same compound?
Its GI50 is > 100 µM (inactive).

For `COc1ccc(/C=C2\N=C3NC(=O)C(N4CCCCC4)=C(N)N3C2=O)cc1`, which GI50 (Hs-578T) is on record?
Its GI50 is 47.5 µM (inactive).

Which GI50 (Hs-578T) does the source give for `CC1CN=C(N(C(=O)Nc2ccccc2)c2ccccc2)S1` (stereo unspecified) here?
Its GI50 is 42.5 µM (inactive).

What does the source list for `COC(=O)C(Cc1ccccc1)NP(=O)(O)OCC1OC(n2ccc(N)nc2=O)C(O)C1O` (stereo unspecified)?
GI50 (BT-549): > 100 µM (inactive); GI50 (Hs-578T): > 100 µM (inactive)

How did the GI50 (BT-549) turn out when `Cc1nn(-c2ccccc2)c2nc3ccc(Cl)cc3c(-c3ccccc3)c12` was run?
Its GI50 is > 100 µM (inactive).

What about the GI50 (Hs-578T) of the same compound?
Its GI50 is > 100 µM (inactive).

What does the source list for `COc1cc([C@@H]2c3cc4c(cc3[C@@H](Nc3ccc(Cl)cc3C(=O)c3ccccc3)[C@H]3COC(=O)[C@H]23)OCO4)cc(OC)c1OC`?
GI50 (BT-549): 0.457 µM (active); GI50 (Hs-578T): 0.287 µM (active)

`C=C(C)C1CC=C(C)C(O)([C@@]2(O)C[C@H](C(=C)C)CC=C2C)C1` (stereo partly specified) was tested. Which GI50 (SNB-78) did it give?
The GI50 was 30.6 µM (inactive).

What about the GI50 (DLD-1) of the same compound?
Its GI50 is 30.3 µM (inactive).

And the GI50 (M19-MEL)?
The GI50 was 11.5 µM (inactive).

And the GI50 (LXFL 529)?
Its GI50 is 26.6 µM (inactive).

Which GI50 (BT-549) does the source give for `Nc1c2c(nc3ccccc13)-c1ccccc1CCC2` here?
Its GI50 is 17.6 µM (inactive).

And the GI50 (Hs-578T)?
Its GI50 is 20.2 µM (inactive).

How did the GI50 (BT-549) turn out when `C=C(C)[C@@H]1CC[C@]2(C(=O)O)CC[C@]3(C)[C@H](CCC4[C@@]5(C)CC[C@H](C(=O)/C=C/c6ccc(O)c(O)c6)C(C)(C)[C@@H]5CC[C@]43C)[C@@H]12` (stereo partly specified) was run?
Its GI50 is 12 µM (inactive).

What about the GI50 (Hs-578T) of the same compound?
The GI50 was 5.47 µM (inactive).

How did the GI50 (BT-549) turn out when `CC(CC(C)[C@H]1CCC2[C@H]3C(CC(=O)[C@@]21C)[C@@]1(C)CCC(O)C[C@H]1C[C@@H]3O)C(=O)O` (stereo partly specified) was run?
Its GI50 is > 100 µM (inactive).

What does the source list for `C=C1C(=O)OC2CC3(C)CCCC(C)C3=CC12` (stereo unspecified)?
GI50 (BT-549): 4.65 µM (inactive); GI50 (Hs-578T): 2.91 µM (inactive)

`CCC(C)C(NC(=O)C1CCCN1)C(=O)NC(C(=O)NCC(=O)NC(CC(N)=O)C(=O)NC(CC(C)C)C(=O)NC(CC(C)C)C(=O)NC(CCCCN)C(N)=O)C(C)C` (stereo unspecified) (H-PIVGNLLK-NH2; configuration not given here) was tested. Which GI50 (BT-549) did it give?
Its GI50 is > 75 µM (inactive).

What about the GI50 (Hs-578T) of the same compound?
The GI50 was > 75 µM (inactive).
